Our source for the solubility (mole fraction) values is BigSolDB 2.1.

Each structure is given as a SMILES string.

One may read the solubility (mole fraction) as solubility expressed as the solute's share of all molecules.

Consider `CCCCOC(=O)c1ccc(O)cc1`, for which the solubility (mole fraction) by setting is: (in ethanol, 288.15 K) 0.287; (in ethanol, 298.15 K) 0.361; (in ethanol, 308.15 K) 0.433; (in ethanol, 318.15 K) 0.524; (in isopropanol, 288.15 K) 0.293; (in isopropanol, 298.15 K) 0.339. In addition, the solubility (mole fraction) was 0.415 (in isopropanol, 308.15 K); 0.512 (in isopropanol, 318.15 K); 0.289 (in n-propanol, 288.15 K); 0.352 (in n-propanol, 298.15 K); 0.448 (in n-propanol, 308.15 K); 0.522 (in n-propanol, 318.15 K).

As for `CCOC(=O)c1ccc(O)cc1`, the solubility (mole fraction) amounted to 0.123 (in ethanol, 288.15 K); 0.163 (in ethanol, 298.15 K); 0.201 (in ethanol, 308.15 K); 0.257 (in ethanol, 318.15 K); 0.157 (in isopropanol, 288.15 K); 0.182 (in isopropanol, 298.15 K). The solubility (mole fraction) is 0.239 (in isopropanol, 308.15 K); 0.282 (in isopropanol, 318.15 K); 0.127 (in n-propanol, 288.15 K); 0.174 (in n-propanol, 298.15 K); 0.214 (in n-propanol, 308.15 K); 0.251 (in n-propanol, 318.15 K).
